Literature values in patent publication US20080096926A1, “Treatment Of Cognitive Impairment Using A Selective Dopamine D1 Receptor Agonist” (DrugAbuse Sciences SAS, priority 2002, published 2008).
Counter-ions that a name gives are not always drawn.

Legend:
[1] = tested on: MPTP treated monkeys; details: for anti-parkinsonian activity: MPTP treated monkeys
[2] = tested on: young control monkeys and aged monkeys
[3] = tested on: MPTP-lesioned macaques
[4] = tested on: non-human primate model of cognitive impairment
[5] = tested on: monkeys; details: 0.1, 0.3 and 1 mg/kg/day IM
[6] = tested on: schizophrenia
[7] = tested on: prefrontal cortex of rhesus monkeys; details: local injections into the prefrontal cortex of rhesus monkeys
[8] = tested on: rats
[9] = tested on: healthy volunteers; details: 0.1 mg, 32 healthy volunteers

## Oc1cc2c(cc1O)[C@H]1c3ccccc3CN[C@@H]1CC2 (racemic) [dihydrexidine]
[1]
  anti-parkinsonian activity: attenuates these parkinsonian signs while increasing eye blink rate
[2]
  memory performance in monkeys following administration of D1 agonists: Improved memory performance
[2]; young control monkeys and aged monkeys
  memory performance: improves memory performance

## CCCc1cc2c(s1)CN[C@@H]1CCc3cc(OC(C)=O)c(OC(C)=O)cc3[C@@H]21 [DAS-431, (−)-trans 9,10-diacetyloxy-2-propyl-4,5,5a,6,7,11b-hexahydro-3-thia-5-azacyclopent-1-ena[c] phenanthrene hydrochloride]
[1]; model not stated
  antiparkinsonian activity (reported for D1 agonists): antiparkinsonian activity
[3]; other studies (Michaelides et al. 1995)
  effect following repeated administration: potent effect is maintained
[3]; three-time daily 0.32 mg/kg s.c. for thirty days
  efficacy over time: no difference over time
1 mg to 40 mg IV per day
  dose relationship of adverse events: no clear dose relationship with the exception of nausea and vomiting in the cocaine abuser population and of dizziness in all subjects
Parkinson's disease population
  tolerance to side effects: rapid tolerance to nausea and vomiting
In vivo
  EKG: Transitory EKG changes
  severity of adverse events: mild or moderate
Previous treatment protocols
  adverse events: high incidence of dopamine related symptoms such as nausea, vomiting, hypotension, postural hypotension, dizziness, injection and application site reactions
[4]; 0.01 μg/kg to 0.1 μg/kg IM, five blocks of five consecutive days
  reversal of haloperidol-induced working memory impairment: reverse the haloperidol effects
[4]; in some monkeys
  persistence of treatment effect after the final treatment: more than a year
[5]
  tolerance: tolerance may have developed after 3 days of treatment

## Cc1nc2n(c(=O)c1CCN1CCC(c3noc4cc(F)ccc34)CC1)CCCC2 [Risperidone, risperidone]
[6]; schizophrenia
  executive functioning: positive effects
  verbal learning and memory: inconsistent results
  working memory: positive effects

## CN1CCc2cc(Cl)c(O)cc2[C@H]2c3ccccc3CC[C@@H]21 [SCH39166]
[7]
  performance on working memory tasks: induce errors and increase latency of performance

## Oc1cc2c(cc1O)C(c1ccccc1)CNCC2 (stereo not drawn) [SKF 38393]
[1]
  anti-parkinsonian activity: without anti-parkinsonian activity
[2]
  memory performance in monkeys following administration of D1 agonists: Improved memory performance
[8]
  food intake: decrease food intake

## C=CCN1CCc2c(cc(O)c(O)c2Cl)C(c2ccccc2)C1 (stereo not drawn) [SKF 82958]
[1]
  anti-parkinsonian activity: increase locomotor activity and improve parkinsonian score

## CN1CCN(C2=Nc3cc(Cl)ccc3Nc3ccccc32)CC1 [clozapine]
[6]; in vivo
  severe side effects: agranulocytosis

## CCCN1C[C@H](CSC)C[C@@H]2c3cccc4[nH]cc(c34)C[C@H]21 [pergolide]
[9]
  effect on spatial memory: positive effect
